Experimental data as given in patent US10947254B2, “Methods for treating ulcerative colitis using 3-((1R,3s,5S)-3-((7-((5-methyl-1H-pyrazol-3-yl)amino)-1,6-naphthyridin-5-yl)amino)-8-azabicyclo[3.2.1]octan-8-yl)propanenitrile” (priority 2015, dated 2021).

Key:
[1] = system: IL-13 induced STAT6 phosphorylation in BEAS-2B human lung epithelial cells; settings: BEAS-2B cells
[2] = system: oxazolone-induced colitis; test: Mouse model of oxazolone-induced colitis; type: in vivo, BALB/C mice; settings: mice, PO, 1, 3, and/or 10 mg/kg BID (doses up to 10 mg/kg BID)
Method: Assay 7: Mouse Model of Oxazalone-Induced Colitis
Oxazolone-induced colitis is an experimental model that has a histological resemblance to human ulcerative colitis (Heller et al. Immunology, 2002, 17, 629-638). Adult BALB/C mice from Harlan were used in the assay. On day 1, animals were lightly anesthetized with isoflurane and the hairs between the shoulder were carefully removed before oxazolone (4%, 150 μL, 4:1 acetone:olive oil formulation) or vehicle solution was slowly applied for skin sensitization. Seven days after skin sensitization, the mice were fasted overnight, anesthetized with isoflurane inhalation, and a 1 mL syringe equipped with a 3.5-F catheter, filled with oxazolone solution, was inserted carefully about 4 cm into the colon of the mouse. Following insertion, 50 μL of the oxazolone solution (1%, 1:1 ethanol:water formulation) was injected very slowly (over 30 sec using an injection pump) into the colon. The catheter was removed and the mice were held vertically (head down) for 2 min to ensure that the entire oxazolone solution remained inside the colon. Drug treatment (PO, BID or TID) or vehicle was initiated a day prior to the oxazolone intrarectal (IR) challenge. Two-day post oxazolone intrarectal challenge, the Disease Activity Index (DAI) was assessed by treatment-blinded experimenters for each mouse according to the criteria score: stool consistency score (0, normal; 2, loose; 4, diarrhea), gross bleeding score (0, absence; 2, blood tinged; 4, presence), and weight loss score (0, none; 1, 1%-5%; 2, 5%-10%; 3, 10%-20%; 4, more than 20%); DAI=average of (stool consistency score+gross bleeding score+weight loss score).
Selected compounds of the invention were tested in the assay. Efficacy in the model is evidenced by a decrease in DAI score as compared with the score from vehicle treated animals.

[3] = biological target: TYK2 (Homo sapiens (Human), UniProt P29597); type: biochemical
Chain of TYK2 (P29597 whole entry): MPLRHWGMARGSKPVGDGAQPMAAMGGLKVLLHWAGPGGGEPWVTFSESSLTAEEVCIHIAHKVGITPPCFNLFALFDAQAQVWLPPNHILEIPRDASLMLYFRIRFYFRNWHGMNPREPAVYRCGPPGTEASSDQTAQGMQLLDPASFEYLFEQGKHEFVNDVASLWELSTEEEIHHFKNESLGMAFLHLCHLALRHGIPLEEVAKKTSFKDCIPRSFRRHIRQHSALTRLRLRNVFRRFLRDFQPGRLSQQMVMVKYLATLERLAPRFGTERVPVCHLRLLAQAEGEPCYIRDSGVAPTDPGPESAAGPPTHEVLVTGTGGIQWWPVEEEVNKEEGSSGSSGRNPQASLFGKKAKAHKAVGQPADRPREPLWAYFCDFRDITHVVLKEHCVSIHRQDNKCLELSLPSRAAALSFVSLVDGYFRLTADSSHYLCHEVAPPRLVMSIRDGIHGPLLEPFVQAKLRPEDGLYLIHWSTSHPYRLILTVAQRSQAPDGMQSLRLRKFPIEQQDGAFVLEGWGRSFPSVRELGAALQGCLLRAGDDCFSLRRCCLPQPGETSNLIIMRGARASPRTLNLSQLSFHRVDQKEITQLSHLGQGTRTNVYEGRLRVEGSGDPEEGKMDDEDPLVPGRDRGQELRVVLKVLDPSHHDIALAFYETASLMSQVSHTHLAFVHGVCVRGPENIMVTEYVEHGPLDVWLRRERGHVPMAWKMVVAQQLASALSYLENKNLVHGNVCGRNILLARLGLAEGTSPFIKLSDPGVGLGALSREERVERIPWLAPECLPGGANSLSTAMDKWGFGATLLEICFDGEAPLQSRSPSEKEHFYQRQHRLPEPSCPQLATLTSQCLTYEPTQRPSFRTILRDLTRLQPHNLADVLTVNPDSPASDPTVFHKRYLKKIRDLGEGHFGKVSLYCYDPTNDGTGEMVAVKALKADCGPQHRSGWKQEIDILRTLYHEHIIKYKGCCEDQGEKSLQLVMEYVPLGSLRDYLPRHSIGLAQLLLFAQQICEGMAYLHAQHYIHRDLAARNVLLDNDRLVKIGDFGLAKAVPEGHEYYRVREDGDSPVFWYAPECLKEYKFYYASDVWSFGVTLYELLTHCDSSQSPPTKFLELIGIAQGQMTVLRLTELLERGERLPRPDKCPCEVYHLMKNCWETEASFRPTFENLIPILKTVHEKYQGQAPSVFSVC
Method: (§1) Assay 1: Biochemical JAK and Off-Target Kinase Assays
(§2) A panel of four LanthaScreen JAK biochemical assays (JAK1, 2, 3 and Tyk2) were carried in a common kinase reaction buffer (50 mM HEPES, pH 7.5, 0.01% Brij-35, 10 mM MgCl2, and 1 mM EGTA). Recombinant GST-tagged JAK enzymes and a GFP-tagged STAT1 peptide substrate were obtained from Life Technologies.
(§3) Serially diluted compounds were pre-incubated with each of the four JAK enzymes and the substrate in white 384-well microplates (Corning) at ambient temperature for 1 h. ATP was subsequently added to initiate the kinase reactions in 10 μL total volume, with 1% DMSO. […] Kinase reactions were allowed to proceed for 1 hour at ambient temperature before a 10 μL preparation of EDTA (10 mM final concentration) and Tb-anti-pSTAT1 (pTyr701) antibody (Life Technologies, 2 nM final concentration) in TR-FRET dilution buffer (Life Technologies) was added. The plates were allowed to incubate at ambient temperature for 1 h before being read on the EnVision reader (Perkin Elmer).
(§4) Results were expressed as pIC50 (negative logarithm of IC50) and subsequently converted to pKi (negative logarithm of dissociation constant, Ki) using the Cheng-Prusoff equation.

[4] = biological target: JAK1 (Homo sapiens (Human), UniProt P23458); type: biochemical
Chain of JAK1 (P23458 whole entry): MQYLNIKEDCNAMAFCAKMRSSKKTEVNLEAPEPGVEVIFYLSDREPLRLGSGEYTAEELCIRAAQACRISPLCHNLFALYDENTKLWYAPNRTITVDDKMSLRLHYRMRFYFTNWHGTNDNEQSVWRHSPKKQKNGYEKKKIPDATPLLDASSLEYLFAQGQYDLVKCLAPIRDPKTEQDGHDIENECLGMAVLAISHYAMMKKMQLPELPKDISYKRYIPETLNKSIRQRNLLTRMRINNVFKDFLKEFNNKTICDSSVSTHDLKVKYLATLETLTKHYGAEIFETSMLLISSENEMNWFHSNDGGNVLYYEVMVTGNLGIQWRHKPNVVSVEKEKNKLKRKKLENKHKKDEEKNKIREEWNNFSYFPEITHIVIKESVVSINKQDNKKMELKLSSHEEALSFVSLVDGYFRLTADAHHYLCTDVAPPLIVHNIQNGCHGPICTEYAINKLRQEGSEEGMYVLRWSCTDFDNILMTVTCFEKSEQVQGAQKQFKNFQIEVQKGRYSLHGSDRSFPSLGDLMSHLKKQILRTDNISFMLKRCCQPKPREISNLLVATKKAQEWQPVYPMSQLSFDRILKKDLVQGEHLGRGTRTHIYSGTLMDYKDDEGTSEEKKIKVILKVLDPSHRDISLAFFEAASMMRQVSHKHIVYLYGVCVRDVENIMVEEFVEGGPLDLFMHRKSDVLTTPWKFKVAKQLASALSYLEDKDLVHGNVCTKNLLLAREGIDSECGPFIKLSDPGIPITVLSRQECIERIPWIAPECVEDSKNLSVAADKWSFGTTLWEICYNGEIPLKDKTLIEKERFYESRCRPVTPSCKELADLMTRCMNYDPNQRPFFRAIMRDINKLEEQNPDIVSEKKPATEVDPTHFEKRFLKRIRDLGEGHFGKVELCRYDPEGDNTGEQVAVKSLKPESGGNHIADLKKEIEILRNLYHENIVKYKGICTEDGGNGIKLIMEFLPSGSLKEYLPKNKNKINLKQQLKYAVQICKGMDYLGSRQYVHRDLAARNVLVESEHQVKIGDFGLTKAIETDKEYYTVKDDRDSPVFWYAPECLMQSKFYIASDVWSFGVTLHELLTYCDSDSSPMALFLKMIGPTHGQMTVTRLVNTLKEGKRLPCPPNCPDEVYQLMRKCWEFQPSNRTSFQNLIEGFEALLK
Method: as §1, §2, §3, §4

[5] = biological target: JAK3 (Homo sapiens (Human), UniProt P52333); test: Biochemical JAK assay (LanthaScreen), JAK3
Chain of JAK3 (P52333 whole entry): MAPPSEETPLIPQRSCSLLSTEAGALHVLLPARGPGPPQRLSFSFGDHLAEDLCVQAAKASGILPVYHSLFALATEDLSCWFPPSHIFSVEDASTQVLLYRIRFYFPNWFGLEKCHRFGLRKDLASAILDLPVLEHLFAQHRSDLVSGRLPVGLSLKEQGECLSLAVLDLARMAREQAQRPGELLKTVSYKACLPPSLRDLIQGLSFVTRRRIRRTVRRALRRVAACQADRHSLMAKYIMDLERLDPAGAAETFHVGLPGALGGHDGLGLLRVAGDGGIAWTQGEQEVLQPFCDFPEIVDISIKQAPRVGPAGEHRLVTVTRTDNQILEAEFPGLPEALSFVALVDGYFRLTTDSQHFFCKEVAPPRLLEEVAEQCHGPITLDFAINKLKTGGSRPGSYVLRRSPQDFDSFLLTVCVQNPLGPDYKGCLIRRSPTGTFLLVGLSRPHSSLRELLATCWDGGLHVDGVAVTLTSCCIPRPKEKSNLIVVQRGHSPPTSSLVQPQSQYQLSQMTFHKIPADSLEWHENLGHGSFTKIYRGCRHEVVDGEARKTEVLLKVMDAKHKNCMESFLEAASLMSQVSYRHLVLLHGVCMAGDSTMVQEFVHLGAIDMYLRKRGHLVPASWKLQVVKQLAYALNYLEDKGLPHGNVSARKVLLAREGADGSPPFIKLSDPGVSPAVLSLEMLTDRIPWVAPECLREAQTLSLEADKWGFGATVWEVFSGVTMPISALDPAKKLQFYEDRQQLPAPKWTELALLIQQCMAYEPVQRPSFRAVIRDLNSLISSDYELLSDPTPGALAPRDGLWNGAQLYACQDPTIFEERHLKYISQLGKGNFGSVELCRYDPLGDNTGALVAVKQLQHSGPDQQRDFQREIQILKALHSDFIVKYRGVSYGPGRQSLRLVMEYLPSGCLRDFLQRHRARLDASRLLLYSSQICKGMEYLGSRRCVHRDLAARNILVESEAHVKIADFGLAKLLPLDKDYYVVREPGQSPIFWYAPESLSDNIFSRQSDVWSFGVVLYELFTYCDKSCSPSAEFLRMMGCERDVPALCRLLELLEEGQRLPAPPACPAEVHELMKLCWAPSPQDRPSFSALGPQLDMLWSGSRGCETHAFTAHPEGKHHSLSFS
Method: as §1, §2
Serially diluted compounds were pre-incubated with each of the four JAK enzymes and the substrate in white 384-well microplates (Corning) at ambient temperature for 1 h. ATP was subsequently added to initiate the kinase reactions in 10 μL total volume, with 1% DMSO. […] The plates were allowed to incubate at ambient temperature for 1 h before being read on the EnVision reader (Perkin Elmer).
as §4

[6] = system: IL-4 induced STAT6 phosphorylation in THP-1 human monocytic cells; settings: THP-1 cells
[7] = system: splenic NK, B and T cells; test: Immunosuppression effects in mouse splenic natural killer (NK) cells; type: in vivo, Balb/C mice; settings: mice, three days
Method: Adult male Balb/C mice (12-14 weeks of age) from Harlan were used for the study. […] Spleens were harvested 1 or 2 h post last dose and crushed immediately for cell subtype staining. Prior to fixation, fluorophore-labelled antibodies for CD19 (FITC; B cells), CD3e (PE; pan T cells) and DX5 (APC; NK cells) were incubated with splenocyte samples from each animal to allow for simultaneous, multiple subtype % analysis on the flow cytometer. The number of total spleen cells for each animal was measured by Scepter™ 2.0 Handheld Automated Cell Counter. The absolute number of lymphocyte subtype population (e.g., splenic B, T and NK cells) was calculated from the percentage of each subtype times total spleen cells for each animal. A one way ANOVA, with Dunnett's post hoc test, was used to compare the splenic lymphocytes number of the vehicle and test compound groups. The a level was set at p<0.05. Data were presented as the mean±SEM for each group.

Row | SMILES | BEAS2B pIC50 [1] | decrease in DAI score as compared with vehicle treated animals [2] | Tyk 2 (pKi) [3] | JAK 1 (pKi) [4] | JAK 3 (pKi) [5] | THP-1 IL4 pIC50 [6] | splenic NK cell counts ([7]; 30 mg/kg PO BID) | treatment effect on B and T cell populations ([7]; PO BID)
1 | CCC(C)C(=O)N1C2CCC1CC(Nc1nc(Nc3cc(C)[nH]n3)cc3ncccc13)C2 (centres unmarked) [Example 2-6] | A (A represents a pEC50 value ≥7.5 (EC50≤32 nM)) | did not exhibit a statistically significant decrease | – | – | – | – | – | –
2 | Cc1cc(Nc2cc3ncccc3c(N[C@@H]3C[C@H]4CC[C@@H](C3)N4C(=O)C3(C(F)(F)F)CC3)n2)n[nH]1 [Example 2-7] | – | – | C (C represents a pKi value between 7 and 9 (Ki between 100 nM and 1 nM)) | B (B represents a pKi value between 9 and 10 (Ki between 1 nM and 0.1 nM)) | C (C represents a pKi value between 7 and 9 (Ki between 100 nM and 1 nM)) | B (B represents a pEC50 value between 6.7 and 7.5 (EC50 between 200 nM and 32 nM)) | – | –
3 | CCOCC(=O)N1[C@@H]2CCC[C@H]1C[C@H](Nc1nc(Nc3cc(C)[nH]n3)cc3ncccc13)C2 [Example 2-17] | A (A represents a pEC50 value ≥7.5 (EC50≤32 nM)) | did not exhibit a statistically significant decrease | – | – | – | – | – | –
4 | Cc1cc(Nc2cc3ncccc3c(N[C@@H]3C[C@H]4CCC[C@@H](C3)N4C(=O)C3(C(F)(F)F)CC3)n2)n[nH]1 [Example 2-19] | – | – | B (B represents a pKi value between 9 and 10 (Ki between 1 nM and 0.1 nM)) | B (B represents a pKi value between 9 and 10 (Ki between 1 nM and 0.1 nM)) | C (C represents a pKi value between 7 and 9 (Ki between 100 nM and 1 nM)) | A (A represents a pEC50 value ≥7.5 (EC50≤32 nM)) | – | –
5 | Cc1cc(Nc2cc3ncccc3c(N[C@@H]3C[C@H]4CCC[C@@H](C3)N4C(=O)C(C)(C)CO)n2)n[nH]1 [Example 2-22] | A (A represents a pEC50 value ≥7.5 (EC50≤32 nM)) | did not exhibit a statistically significant decrease | – | – | – | – | – | –
6 | Cc1cc(Nc2cc3ncccc3c(N[C@@H]3C[C@H]4CCC[C@@H](C3)N4C(=O)Cc3ccccc3)n2)n[nH]1 [Example 2-24] | A (A represents a pEC50 value ≥7.5 (EC50≤32 nM)) | did not exhibit a statistically significant decrease | – | – | – | A (A represents a pEC50 value ≥7.5 (EC50≤32 nM)) | – | –
7 | Cc1cc(Nc2cc3ncccc3c(N[C@@H]3C[C@H]4CC[C@@H](C3)N4S(=O)(=O)CC(C)C)n2)n[nH]1 [Example 4-3] | A (A represents a pEC50 value ≥7.5 (EC50≤32 nM)) | did not exhibit a statistically significant decrease | – | – | – | A (A represents a pEC50 value ≥7.5 (EC50≤32 nM)) | – | –
8 | Cc1cc(Nc2cc3ncccc3c(N[C@@H]3C[C@H]4CC[C@@H](C3)N4S(=O)(=O)Cc3ccccc3)n2)n[nH]1 [Example 4-13] | A (A represents a pEC50 value ≥7.5 (EC50≤32 nM)) | did not exhibit a statistically significant decrease | – | – | – | – | – | –
9 | Cc1cc(Nc2cc3ncccc3c(N[C@@H]3C[C@H]4CCC[C@@H](C3)N4S(=O)(=O)C3CC3)n2)n[nH]1 [Example 4-18] | A (A represents a pEC50 value ≥7.5 (EC50≤32 nM)) | did not exhibit a statistically significant decrease | – | – | – | A (A represents a pEC50 value ≥7.5 (EC50≤32 nM)) | – | –
10 | COCCS(=O)(=O)N1[C@@H]2CCC[C@H]1C[C@H](Nc1nc(Nc3cc(C)[nH]n3)cc3ncccc13)C2 [Example 4-19] | A (A represents a pEC50 value ≥7.5 (EC50≤32 nM)) | did not exhibit a statistically significant decrease | – | – | – | A (A represents a pEC50 value ≥7.5 (EC50≤32 nM)) | – | –
11 | Cc1cc(Nc2cc3ncccc3c(N[C@@H]3C[C@H]4CCC[C@@H](C3)N4S(=O)(=O)CC3CC3)n2)n[nH]1 [Example 4-23] | A (A represents a pEC50 value ≥7.5 (EC50≤32 nM)) | did not exhibit a statistically significant decrease | – | – | – | A (A represents a pEC50 value ≥7.5 (EC50≤32 nM)) | – | –
12 | Cc1cc(Nc2cc3nc(CO)ccc3c(N[C@@H]3C[C@H]4CC[C@@H](C3)N4CCC#N)n2)n[nH]1 [Example 5-11] | – | did not exhibit a statistically significant decrease | – | – | – | A (A represents a pEC50 value ≥7.5 (EC50≤32 nM)) | – | –
13 | Cc1cnc2cc(Nc3cc(C)[nH]n3)nc(N[C@@H]3C[C@H]4CC[C@@H](C3)N4S(C)(=O)=O)c2c1 [Example 6-5] | A (A represents a pEC50 value ≥7.5 (EC50≤32 nM)) | – | B (B represents a pKi value between 9 and 10 (Ki between 1 nM and 0.1 nM)) | B (B represents a pKi value between 9 and 10 (Ki between 1 nM and 0.1 nM)) | C (C represents a pKi value between 7 and 9 (Ki between 100 nM and 1 nM)) | A (A represents a pEC50 value ≥7.5 (EC50≤32 nM)) | – | –
14 | Cc1cnc2cc(Nc3cc(C)[nH]n3)nc(N[C@@H]3C[C@H]4CCC[C@@H](C3)N4S(C)(=O)=O)c2c1 [Example 6-8] | A (A represents a pEC50 value ≥7.5 (EC50≤32 nM)) | – | B (B represents a pKi value between 9 and 10 (Ki between 1 nM and 0.1 nM)) | B (B represents a pKi value between 9 and 10 (Ki between 1 nM and 0.1 nM)) | B (B represents a pKi value between 9 and 10 (Ki between 1 nM and 0.1 nM)) | A (A represents a pEC50 value ≥7.5 (EC50≤32 nM)) | – | –
15 | COC(=O)c1cnc2cc(Nc3cc(C)[nH]n3)nc(N[C@@H]3C[C@H]4CC[C@@H](C3)N4CCCF)c2c1 [Example 6-44] | – | – | – | B (B represents a pKi value between 9 and 10 (Ki between 1 nM and 0.1 nM)) | – | – | – | –
16 | COC(=O)c1cnc2cc(Nc3cc(C)[nH]n3)nc(N[C@@H]3C[C@H]4CCC[C@@H](C3)N4C3CCOC(=O)C3)c2c1 (some centres unmarked) [Example 6-48] | – | – | C (C represents a pKi value between 7 and 9 (Ki between 100 nM and 1 nM)) | B (B represents a pKi value between 9 and 10 (Ki between 1 nM and 0.1 nM)) | C (C represents a pKi value between 7 and 9 (Ki between 100 nM and 1 nM)) | B (B represents a pEC50 value between 6.7 and 7.5 (EC50 between 200 nM and 32 nM)) | – | –
17 | C[C@@H]1CCN(C(=O)CC#N)C[C@@H]1N(C)c1ncnc2[nH]ccc12 [tofacitinib, reference compound] | – | – | – | – | – | – | significantly decreased | No treatment effect
